According to BindingDB's records for doi:10.1016/j.bmcl.2003.10.070 (Roche Palo Alto, 2004):
pKi: −log10 of the molar value.

What follows are compounds tested against Prostacyclin receptor (Rattus norvegicus) (UniProt P43253) (assay: Binding affinity towards prostacyclin receptor on rat NG-108-15 neuroblastoma cells, using [3H]iloprost as a radioligand).
Sequence of Prostacyclin receptor (Rattus norvegicus) (P43253 whole entry, looked up): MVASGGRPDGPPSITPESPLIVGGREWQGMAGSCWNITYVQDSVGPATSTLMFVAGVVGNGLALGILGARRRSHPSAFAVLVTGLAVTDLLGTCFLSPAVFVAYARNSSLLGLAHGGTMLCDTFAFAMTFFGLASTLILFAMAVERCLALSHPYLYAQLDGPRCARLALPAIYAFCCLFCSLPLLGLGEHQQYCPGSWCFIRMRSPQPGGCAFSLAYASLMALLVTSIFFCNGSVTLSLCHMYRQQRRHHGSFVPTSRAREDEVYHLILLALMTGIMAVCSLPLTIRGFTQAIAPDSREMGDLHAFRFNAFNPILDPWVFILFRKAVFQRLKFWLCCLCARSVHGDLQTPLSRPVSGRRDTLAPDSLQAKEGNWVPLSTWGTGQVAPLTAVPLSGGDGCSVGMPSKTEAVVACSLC

Row | Compound | pKi
1 | COc1ccc(Sc2ccc(NC3=NCCCCN3)cc2)cc1 | 5.90
2 | CCOc1ccc(Sc2ccc(NC3=NCCN3)cc2)cc1 | 7.40
3 | COc1ccc(Cc2ccc(NC3=NCCN3)cc2)cc1 | 7.60
4 | c1ccc(Sc2ccc(NC3=NCCN3)cc2)cc1 | 6.10
5 | COc1ccc(C(=O)c2ccc(NC3=NCCN3)cc2)cc1 | 6.50
6 | COc1ccc(Sc2ccc(C3=NCCN3)cc2)cc1 | 6.50
7 | COc1ccc(N(C)c2ccc(NC3=NCCN3)cc2)cc1 | 6.30
8 | COc1ccc(Oc2ccc(NC3=NCCN3)cc2)cc1 | 6.80
9 | CC/N=C(\N)Nc1ccc(Sc2ccc(OC)cc2)cc1 | 6.60
10 | CCOC(=O)c1ccc(Sc2ccc(NC3=NCCN3)cc2)cc1 | 7.30
11 | Clc1ccc(Sc2ccc(NC3=NCCN3)cc2)cc1 | 7.10
12 | COc1ccc(Sc2ccccc2NC2=NCCN2)cc1 | 6.20
13 | COc1ccc(-c2ccc(NC3=NCCN3)cc2)cc1 | 6.00
14 | CC/N=C(\N)Nc1ccc(Sc2ccc(Cl)cc2)cc1 | 6.20
15 | c1cc(SC2CCCCC2)ccc1NC1=NCCN1 | 5.50
16 | COc1ccc(Sc2cccc(NC3=NCCN3)c2)cc1 | 5.40

Results, then the compound that gave them:

Row | pKi | Compound
17 | 5.40 | COc1ccccc1Sc1ccc(NC2=NCCN2)cc1
18 | 6.60 | CC(C)c1ccc(Sc2ccc(NC3=NCCN3)cc2)cc1
19 | 7.20 | COc1ccc(Sc2ccc(NC3=NC(C)CN3)cc2)cc1 (configuration not stated)
20 | 5.00 | COc1ccc(Sc2ccc(CN3CCCC3)cc2)cc1
21 | 6.40 | COc1cccc(Sc2ccc(NC3=NCCN3)cc2)c1
22 | 7.49 | CC(C)Oc1ccc(Sc2ccc(NC3=NCCN3)cc2)cc1
23 | 5.90 | COc1ccc(Sc2ccc(C(=N)N)cc2)cc1
24 | 7.10 | CS(=O)(=O)Nc1ccc(Sc2ccc(NC3=NCCN3)cc2)cc1
25 | 7.10 | COc1ccc(Sc2ccc(NC3=NCCCN3)cc2)cc1
26 | 6.20 | Clc1cccc(Cl)c1Sc1ccc(NC2=NCCN2)cc1
27 | 6.20 | c1cc(Sc2ccc3c(c2)OCCO3)ccc1NC1=NCCN1
28 | 6.20 | COc1ccc(Sc2ccc(NC3=NC(C)(C)CN3)cc2)cc1
29 | 7.00 | Cc1ccc(Sc2ccc(NC3=NCCN3)cc2)cc1
30 | 5.50 | c1ccc2c(c1)sc1ccc(NC3=NCCN3)cc12
31 | 7.30 | FC(F)(F)c1ccc(Sc2ccc(NC3=NCCN3)cc2)cc1
32 | 6.50 | O=[N+]([O-])c1ccc(Sc2ccc(NC3=NCCN3)cc2)cc1
33 | 6.30 | Clc1ccc(Sc2ccc(CNC3=NCCN3)cc2)cc1
34 | 5.30 | COc1ccc(Sc2ccc(CC3=NCCN3)cc2)cc1
35 | 6.10 | COc1ccc(OC)c(Sc2ccc(NC3=NCCN3)cc2)c1
36 | 6.80 | COc1ccc(S(=O)(=O)c2ccc(NC3=NCCN3)cc2)cc1
37 | 6.40 | CC(C)(C)c1ccc(Sc2ccc(NC3=NCCN3)cc2)cc1
